The source of these data is patent US8450319B2, “Pyrrolopyridazinone compound” (Ube Industries, Ltd., priority 2006, dated 2013).

One data set concerns the target PDE4. Briefly: Measurement of PDE4 enzyme inhibiting action. Particulars: PDE4 enzyme solution from polymorphonuclear leukocytes of healthy volunteer; 0.2 μM [3H]cAMP, 30° C., 30 minutes; read-out: PDE4 inhibition IC50 value. Format: biochemical, human. On the procedure:
Preparation of a PDE4 enzyme solution was carried out according to the method of Cooper et al. (Br. J. Pharmacol., 126, 1863 (1999)) by modifying a part thereof. Heparin-treated peripheral blood from healthy volunteer was stratified by a blood cell separating solution (Polymorphprep™, available from AXIS-SHIELD PoC AS CO.), and centrifugation was carried out at 20° C. with 1900 rpm for 27 minutes to obtain polymorphonuclear leukocytes. The polymorphonuclear leukocytes were washed with a Hanks' balanced salt solution, then, a mixed solution comprising 70% of 10 mM 3-morpholinopropane sulfonic acid buffer solution (pH 7.4) containing 1 mM EGTA, 1 mM magnesium acetate and 5 mM dithiothreitol and 30% of ethylene glycol was added thereto to dissolve the same under ice-cooling, and the obtained cell dissolved solution was used as a PDE4 enzyme solution.
Measurement of PDE4 activity was carried out according to the method of Owens, et al. (Biochem. J., 326, 53 (1997)) by modifying a part thereof. The PDE4 enzyme solution was incubated with a compound to be tested dissolved in dimethylsulfoxide in 80 mM Tris-HCl buffer solution (pH 7.4) containing 0.2 μM [^3H] cAMP, 0.1 mM cGMP, 20 mM MgCl2 and 12 mM 2-mercaptoethanol at 30° C. for 30 minutes. Trifluoroacetic acid (final concentration: 1%) was added to the mixture to stop the reaction, and the reaction mixture was added to neutral alumina column (BOND ELUT™, available from VARIAN INC.). After the column was washed with 100 mM Tris-HCl buffer solution (pH 8.0), [^3H] 5′-AMP was eluted with 2N sodium hydroxide solution, and radioactivity of the eluent was measured by a liquid scintillation analyzer.
A concentration of the compound to be tested which inhibits 50% of PDE4 activity was calculated from the relation between the concentration of the compound to be tested which had been added and PDE4 activity as an IC50 value.

In another data set the test system is cynomulgus monkey. Briefly: Emetic action test in cynomulgus monkey. Particulars: suspended in 0.5% aqueous methyl cellulose, administered nasally; emesis observed for 24 hours; 3 or 4 monkeys per dose.
Data set [1] has as its system pulmonary neutrophil infiltration. Briefly: Pulmonary neutrophil infiltration-inhibiting activity in SD rats (LPS inhalation, MPO activity in BALF). Type of data set: in vivo. The note with it: @3 mg/Kg, orally 15 minutes before LPS inhalation; BAL 4 hours after LPS; MPO activity as index; inhibiting rate relative to control. The procedure:
Inhalation of lipopolysaccharide (hereinafter abbreviated to as LPS) was carried out by modifying the method of Moraes et al. (Br. J. Pharmacol., 123, 631 (1998)). SD rats (male, 5-weeks old, supplied by CHARLES RIVER LABORATORIES JAPAN, INC.) fasted 24 hours before administration of a compound were kept in a plastic cage, and inhalated LPS (L2880-500MG, available from SIGMA Inc.) (0.1 mg/ml) dissolved in physiological saline for 30 minutes. An ultrasonic nebulizer (NE-U12, manufactured by Omron Corporation) was used for inhalation.
A compound to be tested is dissolved (10 ml/Kg) in mixed solution of polyethylene glycol (hereinafter abbreviated to as PEG) and water, and orally administered 15 minutes before the inhalation of LPS. For the control group, 50% PEG solution was administered.
Bronchoalveolar lavage (hereinafter abbreviated to as BAL) was carried out as mentioned below 4 hours after the inhalation of LPS. […] 3.5 ml of physiological saline containing heparin (1 U/ml) was injected by using a disposable injection syringe (5 ml volume, manufactured by Terumo Corporation), and immediately recovered. This operation was repeated four times to obtain a bronchioalveolar lavage fluid (hereinafter abbreviated to as BALF). BALF was centrifugated (at 2500 rpm, 10 minutes, 4° C.), and 1 ml of 0.5% hexadecyltrimethylammonium bromide (030-02105, available from Wako Pure Chemical Industries, Ltd.) was added to the precipitated cells. Thereafter, a freeze-thaw operation (−80° C./37° C.) was repeated three times to destroy the cells.
As an index of a number of neutrophil, measurement of myeloperoxidase (hereinafter abbreviated to as MPO) activity was carried out as follows. Measurement of MPO activity was carried out by partially modifying the method of Krawisz et al. (GASTROENTEROLOGY, 1344 (1984)). To cell dissolved solution was added 50 mM phosphate buffer solution (pH 6.0) containing o-dianisidine hydrochloride (0.2 mg/ml) and 0.005% hydrogen peroxide, and change in absorbance at 450 nm was measured. As a MPO standard substance, MPO from human sputum (available from Elastin Products Company Inc.) was used. Measurement of absorbance was carried out by using a Microplate Reader (MTP-32, manufactured by Corona Electric Co., Ltd.).
An inhibiting rate of the compound to be tested relative to the control was calculated.

Experimental for cynomulgus monkey: The compound to be tested was suspended in 0.5% aqueous methyl cellulose solution (5 ml/Kg), and administered nasally.
With respect to each dose, each administered to 3 or 4 monkeys, and a dose in which emesis had not been admitted in all monkeys was made a maximum non-emesis dose.

For the compound `CCc1c(-c2ccc(OC(F)F)c(OC3CC3)c2)[nH]c2cn[nH]c(=O)c12` [Example 5, 2-(3-Cyclopropoxy-4-difluoromethoxyphenyl)-3-ethyl-1,5-dihydropyrrolo[2,3-d]pyridazin-4-one], the melting point (as a rule, the temperature, or range, at which the solid turns liquid) lay in the range of 223 to 225 °C. Moreover, the IC50 (in general, the concentration at which inhibition is half-maximal) on PDE4 turned out to be 3.4 nM. Besides, the “Monkey Maximum non-emesis dose” value in the data set on cynomulgus monkey was over 30 mg/kg.
The corresponding values for `CCOCc1c(-c2ccc(OC(F)F)c(OC3CC3)c2)[nH]c2cn[nH]c(=O)c12` [Example 12, 2-(3-Cyclopropoxy-4-difluoromethoxyphenyl)-3-ethoxymethyl-1,5-dihydropyrrolo[2,3-d]pyridazin-4-one] are 141 to 143 °C, 4.6 nM and 3 mg/kg.
`O=c1[nH]ncc2[nH]c(-c3ccc(OC(F)F)c(OC4CC4)c3)c(CC3CC3)c12` [Example 15, 2-(3-Cyclopropoxy-4-difluoromethoxyphenyl)-3-cyclopropylmethyl-1,5-dihydropyrrolo[2,3-d]pyridazin-4-one]: the melting point lay within 204 to 206 °C. Besides, the “Rat pulmonary neutrophil infiltration-inhibiting activity” value in data set [1] came out at 73%.
On the same counts, the results for `O=c1[nH]ncc2[nH]c(-c3ccc(OC(F)F)c(OC4CC4)c3)c(Cc3ccccc3F)c12` [Example 22, 2-(3-Cyclopropoxy-4-difluoromethoxyphenyl)-3-(2-fluorobenzyl)-1,5-dihydropyrrolo[2,3-d]pyridazin-4-one] are 202 to 204 °C and 78%.
For `O=c1[nH]ncc2[nH]c(-c3ccc(OC(F)F)c(OC4CC4)c3)c(COCCF)c12` [Example 61, 2-(3-Cyclopropoxy-4-difluoromethoxyphenyl)-3-(2-fluoroethoxymethyl)-1,5-dihydropyrrolo[2,3-d]pyridazin-4-one], the “Rat pulmonary neutrophil infiltration-inhibiting activity” value in data set [1] is given as 59%.
In turn, `CC(C)COCc1c(-c2ccc(OC(F)F)c(OC3CC3)c2)[nH]c2cn[nH]c(=O)c12` [Example 62, 2-(3-Cyclopropoxy-4-difluoromethoxyphenyl)-3-isobutoxymethyl-1,5-dihydropyrrolo[2,3-d]pyridazin-4-one] came in with a melting point of 162 to 164 °C. Besides, the half-inhibitory concentration (IC50) at PDE4 was 0.41 nM. Further, in the data set with cynomulgus monkey, the “Monkey Maximum non-emesis dose” value is over 10 mg/kg.
In the case of `COCCc1c(-c2ccc(OC(F)F)c(OC3CC3)c2)[nH]c2cn[nH]c(=O)c12` [Example 66, 2-(3-Cyclopropoxy-4-difluoromethoxyphenyl)-3-(2-methoxyethyl)-1,5-dihydropyrrolo[2,3-d]pyridazin-4-one], the melting point was 215 to 217 °C. For the same compound, the “Rat pulmonary neutrophil infiltration-inhibiting activity” value in data set [1] amounted to 69%. Besides, the “Monkey Maximum non-emesis dose” value in the data set on cynomulgus monkey was over 10 mg/kg.
As to `CCOCCc1c(-c2ccc(OC(F)F)c(OC3CC3)c2)[nH]c2cn[nH]c(=O)c12` [Example 67, 2-(3-Cyclopropoxy-4-difluoromethoxyphenyl)-3-(2-ethoxyethyl)-1,5-dihydropyrrolo[2,3-d]pyridazin-4-one], the melting point was 201 to 203 °C. The IC50 on PDE4 stood at 1.4 nM.
On the same counts, the results for `CCCCCCc1c(-c2ccc(OC(F)F)c(OC3CC3)c2)[nH]c2cn[nH]c(=O)c12` [Example 69, 2-(3-Cyclopropoxy-4-difluoromethoxyphenyl)-3-hexyl-1,5-dihydropyrrolo[2,3-d]pyridazin-4-one] are 186 to 188 °C and 0.38 nM.
For the compound `CC#CCc1c(-c2ccc(OC(F)F)c(OC3CC3)c2)[nH]c2cn[nH]c(=O)c12` [Example 72, 3-(2-Butynyl)-2-(3-cyclopropoxy-4-difluoromethoxyphenyl)-1,5-dihydropyrrolo[2,3-d]pyridazin-4-one], the melting point lay in the range of 231 to 236 °C. Besides, in data set [1], the “Rat pulmonary neutrophil infiltration-inhibiting activity” value was determined as 76%. The “Monkey Maximum non-emesis dose” value with cynomulgus monkey is over 10 mg/kg.
In turn, `CC(C)C#CCc1c(-c2ccc(OC(F)F)c(OC3CC3)c2)[nH]c2cn[nH]c(=O)c12` [Example 73, 2-(3-cyclopropoxy-4-difluoromethoxyphenyl)-3-(4-methyl-2-pentynyl)-1,5-dihydropyrrolo[2,3-d]pyridazin-4-one] came in with a melting point of 139 to 143 °C. Further, on PDE4, the concentration for half-maximal inhibition (IC50) was 0.23 nM.
With `C=CC(O)c1c(-c2ccc(OC(F)F)c(OC3CC3)c2)[nH]c2cn[nH]c(=O)c12` (centres unmarked) [Example 75, 2-(3-Cyclopropoxy-4-difluoromethoxyphenyl)-3-(1-hydroxy-2-propenyl)-1,5-dihydropyrrolo[2,3-d]pyridazin-4-one], the melting point was 202 to 203 °C. At PDE4, the IC50 is 1.5 nM.
Take `O=C(Nc1c(Cl)cncc1Cl)c1ccc(OC(F)F)c(OCC2CC2)c1` [compound A, N-(3,5-dichloro-4-pyridyl)-3-cyclopropylmethoxy-4-difluoromethoxybenzamide, reference compound]: the “Monkey Maximum non-emesis dose” value in the data set with cynomulgus monkey was determined as 0.1 mg/kg.
